Publication PMC5844530, “Fosmetpantotenate (RE-024), a phosphopantothenate replacement therapy for pantothenate kinase-associated neurodegeneration: Mechanism of action and efficacy in nonclinical models” (PLoS ONE, 2018)
Where “and” joins values, the source holds several entries; their conditions need not be identical. Equal entries are not always repeated.

How the values were obtained:
[1] = Pharmacokinetics in whole blood, CD-1 mice; details: male, CD-1, mouse, in vivo, blood
Method: The whole blood samples (0.5 mL) were collected into syringes that were prefilled with 2.5 mL of ice-cold 0.1% formic acid in acetonitrile. The volume ratio of the whole blood to 0.1% formic acid in acetonitrile was 1/5 (v/v). Samples were frozen (-70°C) until analyzed by LC-MS/MS.
Standard curves and quality control (QC) samples were prepared fresh on the day of analysis by serial dilution of the standard mixture in quenched whole blood (1 part of blood to 5 parts of 0.1% formic acid in acetonitrile) and centrifuged. […] The frozen study samples were thawed in an ice/water bath and centrifuged. Supernatant (50 μL) from standards, QC samples, and study samples was transferred to a 96-well plate and dried completely under nitrogen. The dried residues were reconstituted with 100 μL of 0.1% formic acid in water containing internal standard (5 ng/mL of ^15N/^13C3-RE-024-02) and analyzed by LC-MS/MS.
LC-MS/MS analysis for blood pharmacokinetic samples: Samples were analyzed using an Agilent 1100 binary pump (Agilent Technologies, Santa Clara, CA, USA), connected to an AB Sciex API 6500 mass spectrometer (SCIEX, Framingham, MA, USA). An electrospray ionization source was used, scanning in the positive mode. […] The chromatography column was a Varian Metasil AQ 120–5 C18 column, 5 μm, 50 x 2.00 mm (Part No. A0530050X020) at ambient temperature, with a 0.5 mL/min flow rate and a 20 μL injection volume. Mobile phase (A) consisted of 0.1% formic acid in water; while mobile phase (B) consisted of 0.1% formic acid in acetonitrile:water (9:1, v/v).
Quantitation of in vivo samples: Peak areas were integrated using Analyst software (AB Sciex, Concord, Ontario, Canada). […] Calibration standards (at a minimum 7 per curve) were fit by linear regression with (1/x^2) weighting. QC samples were used (triplicate) at 3 concentrations for all tandem mass spectrometry (MS/MS) runs.
Pharmacokinetic calculations: PK analysis was performed using Phoenix WinNonlin®, Build 6.3.0.395 (Certara, Princeton, NJ, USA) using a non-compartmental model (PO dose = model 200 for extravascular dosing). […] Post-dose concentrations below the limit of quantitation (BLQ) were omitted from calculation.

[2] = Pharmacokinetics in whole blood, Sprague-Dawley rats; details: male Sprague-Dawley rats, blood, BQL <1.26 nM
[3] = 300 mg/kg, Conc., fosmetpantotenate 300 mg/kg PO, individual animals
[4] = 300 mg/kg, Mean Conc., fosmetpantotenate 300 mg/kg PO
[5] = 700 mg/kg, Fosmetpantotenate Conc., male CD-1 mice, fosmetpantotenate 700 mg/kg oral, individual animals, BQL <1.02 nM
[6] = 700 mg/kg, Fosmetpantotenate Mean Conc., male CD-1 mice, fosmetpantotenate 700 mg/kg oral, mean, BQL <1.02 nM

COC(=O)CCNC(=O)[C@H](O)C(C)(C)COP(=O)(N[C@@H](C)C(=O)OC)Oc1ccccc1 (mixture of isomers) [Fosmetpantotenate]
concentration at 0.333 h [1, 3]: 1.43 nM | concentration at 0.5 h [1, 3]: 1.83 nM | concentration at 1 h [1, 3]: 1.14 nM | concentration at 4 h [1, 3]: 1.03 nM | concentration at 0.033 h [1, 4]: 30.2 nM | concentration at 0.083 h [1, 4]: 14.4 nM | concentration at 0.167 h [1, 4]: 2.3 nM | concentration at 0.333 h [1, 4]: 1.22 nM | concentration at 0.5 h [1, 4]: 1.36 nM | concentration at 1 h [1, 4]: 1.14 nM | concentration at 4 h [1, 4]: 1.03 nM | concentration at 0.333 h [1, 5]: 24.4 nM | concentration at 4 h [1, 5]: 1.14 nM | concentration at 0.033 h [1, 6]: 135 nM | concentration at 0.083 h [1, 6]: 16.2 nM | concentration at 0.167 h [1, 6]: 307 nM | concentration at 0.333 h [1, 6]: 23.6 nM | concentration at 0.5 h [1, 6]: 78.7 nM | concentration at 1 h [1, 6]: 51.6 nM | concentration at 2 h ([1]; 700 mg/kg, Fosmetpantotenate Mean Conc., male CD-1 mice, fosmetpantotenate 700 mg/kg oral, 2 hr, mean, BQL <1.02 nM): 5.11 nM | concentration at 4 h [1, 6]: 1.14 nM | Fosmetpantotenate Conc. ([2]; fosmetpantotenate 100 mg/kg oral, 0.033 hr, individual animals): BQL | Fosmetpantotenate Mean Conc. ([2]; fosmetpantotenate 100 mg/kg oral, 0.033 hr, mean): BQL | Fosmetpantotenate Conc. ([2]; fosmetpantotenate 100 mg/kg oral, 0.083 hr, individual animals): BQL | Fosmetpantotenate Mean Conc. ([2]; fosmetpantotenate 100 mg/kg oral, 0.083 hr, mean): BQL | Fosmetpantotenate Conc. ([2]; fosmetpantotenate 100 mg/kg oral, 0.167 hr, individual animals): BQL | Fosmetpantotenate Mean Conc. ([2]; fosmetpantotenate 100 mg/kg oral, 0.167 hr, mean): BQL | Fosmetpantotenate Conc. ([2]; fosmetpantotenate 100 mg/kg oral, 0.33 hr, individual animals): BQL | Fosmetpantotenate Mean Conc. ([2]; fosmetpantotenate 100 mg/kg oral, 0.33 hr, mean): BQL | Fosmetpantotenate Conc. ([2]; fosmetpantotenate 100 mg/kg oral, 0.5 hr, individual animals): BQL | Fosmetpantotenate Conc. ([2]; fosmetpantotenate 100 mg/kg oral, 1 hr, individual animals): BQL | Fosmetpantotenate Mean Conc. ([2]; fosmetpantotenate 100 mg/kg oral, 1 hr, mean): BQL | Fosmetpantotenate Conc. ([2]; fosmetpantotenate 100 mg/kg oral, 2 hr, individual animals): BQL | Fosmetpantotenate Mean Conc. ([2]; fosmetpantotenate 100 mg/kg oral, 2 hr, mean): BQL | Fosmetpantotenate Conc. ([2]; fosmetpantotenate 100 mg/kg oral, 4 hr, individual animals): BQL | Fosmetpantotenate Conc. ([2]; fosmetpantotenate 100 mg/kg oral, 8 hr, individual animals): BQL | Fosmetpantotenate Mean Conc. ([2]; fosmetpantotenate 100 mg/kg oral, 8 hr, mean): BQL | Fosmetpantotenate Conc. ([2]; fosmetpantotenate 300 mg/kg oral, 0.033 hr, individual animals): 4.15 nM and BQL | Fosmetpantotenate Conc. ([2]; fosmetpantotenate 300 mg/kg oral, 0.083 hr, individual animals): BQL | Fosmetpantotenate Mean Conc. ([2]; fosmetpantotenate 300 mg/kg oral, 0.083 hr, mean): BQL | Fosmetpantotenate Conc. ([2]; fosmetpantotenate 300 mg/kg oral, 0.167 hr, individual animals): 8.83 nM and 22.89 nM and 22.51 nM | Fosmetpantotenate Conc. ([2]; fosmetpantotenate 300 mg/kg oral, 0.33 hr, individual animals): BQL and 64.88 nM and 7.67 nM | Fosmetpantotenate Conc. ([2]; fosmetpantotenate 300 mg/kg oral, 0.5 hr, individual animals): 2.28 nM and BQL and 577.94 nM | Fosmetpantotenate Conc. ([2]; fosmetpantotenate 300 mg/kg oral, 1 hr, individual animals): BQL | Fosmetpantotenate Conc. ([2]; fosmetpantotenate 300 mg/kg oral, 2 hr, individual animals): BQL | Fosmetpantotenate Conc. ([2]; fosmetpantotenate 300 mg/kg oral, 4 hr, individual animals): BQL | Fosmetpantotenate Conc. ([2]; fosmetpantotenate 300 mg/kg oral, 8 hr, individual animals): BQL | Fosmetpantotenate Mean Conc. ([2]; fosmetpantotenate 300 mg/kg oral, 8 hr, mean): BQL | Fosmetpantotenate Conc. ([2]; fosmetpantotenate 700 mg/kg oral, 0.033 hr, individual animals): 2149.90(a) nM and BQL and 114.07 nM | Fosmetpantotenate Conc. ([2]; fosmetpantotenate 700 mg/kg oral, 0.083 hr, individual animals): 518.51 nM and BQL and 1.62 nM | Fosmetpantotenate Conc. ([2]; fosmetpantotenate 700 mg/kg oral, 0.167 hr, individual animals): 28.96 nM and 23269.54(a) nM and 247.87 nM | Fosmetpantotenate Conc. ([2]; fosmetpantotenate 700 mg/kg oral, 0.33 hr, individual animals): 2541.94 nM and 1277.3 nM and 54 nM | Fosmetpantotenate Conc. ([2]; fosmetpantotenate 700 mg/kg oral, 0.5 hr, individual animals): 509.65 nM and 72.84 nM and 84.61 nM | Fosmetpantotenate Conc. ([2]; fosmetpantotenate 700 mg/kg oral, 1 hr, individual animals): 73.35 nM and 63.86 nM and 214.99 nM | Fosmetpantotenate Conc. ([2]; fosmetpantotenate 700 mg/kg oral, 2 hr, individual animals): BQL and 1035.75 nM | Fosmetpantotenate Conc. ([2]; fosmetpantotenate 700 mg/kg oral, 4 hr, individual animals): 419.86 nM and BQL and 32.12 nM | Fosmetpantotenate Conc. ([2]; fosmetpantotenate 700 mg/kg oral, 8 hr, individual animals): BQL | Fosmetpantotenate Mean Conc. ([2]; fosmetpantotenate 700 mg/kg oral, 8 hr, mean): BQL | concentration at 0.5 h ([2]; male, Sprague-Dawley, rat, in vivo, 100 mg/kg, Fosmetpantotenate Conc., fosmetpantotenate 100 mg/kg oral, 0.5 hr, individual animals): 3.31 nM | concentration at 4 h ([2]; male, Sprague-Dawley, rat, in vivo, 100 mg/kg, Fosmetpantotenate Conc., fosmetpantotenate 100 mg/kg oral, 4 hr, individual animals): 2.04 nM | concentration at 0.5 h ([2]; male, Sprague-Dawley, rat, in vivo, 100 mg/kg, Fosmetpantotenate Mean Conc., fosmetpantotenate 100 mg/kg oral, 0.5 hr, mean): 3.31 nM | concentration at 4 h ([2]; male, Sprague-Dawley, rat, in vivo, 100 mg/kg, Fosmetpantotenate Mean Conc., fosmetpantotenate 100 mg/kg oral, 4 hr, mean): 2.04 nM | concentration at 0.033 h ([2]; male, Sprague-Dawley, rat, in vivo, 300 mg/kg, Fosmetpantotenate Conc., fosmetpantotenate 300 mg/kg oral, 0.033 hr, individual animals): 3.9 nM | concentration at 1 h ([2]; male, Sprague-Dawley, rat, in vivo, 300 mg/kg, Fosmetpantotenate Conc., fosmetpantotenate 300 mg/kg oral, 1 hr, individual animals): 6.98 nM | concentration at 2 h ([2]; male, Sprague-Dawley, rat, in vivo, 300 mg/kg, Fosmetpantotenate Conc., fosmetpantotenate 300 mg/kg oral, 2 hr, individual animals): 3.41 nM | concentration at 4 h ([2]; male, Sprague-Dawley, rat, in vivo, 300 mg/kg, Fosmetpantotenate Conc., fosmetpantotenate 300 mg/kg oral, 4 hr, individual animals): 3.69 nM | concentration at 0.033 h ([2]; male, Sprague-Dawley, rat, in vivo, 300 mg/kg, Fosmetpantotenate Mean Conc., fosmetpantotenate 300 mg/kg oral, 0.033 hr, mean): 4.03 nM | concentration at 0.167 h ([2]; male, Sprague-Dawley, rat, in vivo, 300 mg/kg, Fosmetpantotenate Mean Conc., fosmetpantotenate 300 mg/kg oral, 0.167 hr, mean): 18.1 nM | concentration at 0.33 h ([2]; male, Sprague-Dawley, rat, in vivo, 300 mg/kg, Fosmetpantotenate Mean Conc., fosmetpantotenate 300 mg/kg oral, 0.33 hr, mean): 36.3 nM | concentration at 0.5 h ([2]; male, Sprague-Dawley, rat, in vivo, 300 mg/kg, Fosmetpantotenate Mean Conc., fosmetpantotenate 300 mg/kg oral, 0.5 hr, mean): 290 nM | concentration at 1 h ([2]; male, Sprague-Dawley, rat, in vivo, 300 mg/kg, Fosmetpantotenate Mean Conc., fosmetpantotenate 300 mg/kg oral, 1 hr, mean): 6.98 nM | concentration at 2 h ([2]; male, Sprague-Dawley, rat, in vivo, 300 mg/kg, Fosmetpantotenate Mean Conc., fosmetpantotenate 300 mg/kg oral, 2 hr, mean): 3.41 nM | concentration at 4 h ([2]; male, Sprague-Dawley, rat, in vivo, 300 mg/kg, Fosmetpantotenate Mean Conc., fosmetpantotenate 300 mg/kg oral, 4 hr, mean): 3.69 nM | concentration at 2 hr ([2]; male, Sprague-Dawley, rat, in vivo, 700 mg/kg, Fosmetpantotenate Conc., fosmetpantotenate 700 mg/kg oral, 2 hr, individual animals): 663 nM | concentration at 0.033 h ([2]; male, Sprague-Dawley, rat, in vivo, 700 mg/kg, Fosmetpantotenate Mean Conc., fosmetpantotenate 700 mg/kg oral, 0.033 hr, mean): 114 nM | concentration at 0.083 h ([2]; male, Sprague-Dawley, rat, in vivo, 700 mg/kg, Fosmetpantotenate Mean Conc., fosmetpantotenate 700 mg/kg oral, 0.083 hr, mean): 260 nM | concentration at 0.167 hr ([2]; male, Sprague-Dawley, rat, in vivo, 700 mg/kg, Fosmetpantotenate Mean Conc., fosmetpantotenate 700 mg/kg oral, 0.167 hr, mean): 138 nM | concentration at 0.33 hr ([2]; male, Sprague-Dawley, rat, in vivo, 700 mg/kg, Fosmetpantotenate Mean Conc., fosmetpantotenate 700 mg/kg oral, 0.33 hr, mean): 1290 nM | concentration at 0.5 hr ([2]; male, Sprague-Dawley, rat, in vivo, 700 mg/kg, Fosmetpantotenate Mean Conc., fosmetpantotenate 700 mg/kg oral, 0.5 hr, mean): 222 nM | concentration at 1 hr ([2]; male, Sprague-Dawley, rat, in vivo, 700 mg/kg, Fosmetpantotenate Mean Conc., fosmetpantotenate 700 mg/kg oral, 1 hr, mean): 117 nM | concentration at 2 hr ([2]; male, Sprague-Dawley, rat, in vivo, 700 mg/kg, Fosmetpantotenate Mean Conc., fosmetpantotenate 700 mg/kg oral, 2 hr, mean): 849 nM | concentration at 4 h ([2]; male, Sprague-Dawley, rat, in vivo, 700 mg/kg, Fosmetpantotenate Mean Conc., fosmetpantotenate 700 mg/kg oral, 4 hr, mean): 226 nM
